These results are taken from patent US20220241369A1, “COMPOSITIONS AND METHODS OF MODULATING INFLAMMATION” (La Jolla Institute for Allergy and Immunology, priority 2018, published 2022).

Assay [1] has as its system BEAS-2B human bronchial epithelial cells. Description: HRF secretion, western blot, BEAS-2B. In kind it is cell-based. The settings on record: cultured cells scraped and treated with adenosine and ATP. An excerpt:
As lung epithelial cells are exposed to the environment, HRF secretion was studied using BEAS-2B human bronchial epithelial cells. A small amount of HRF was secreted constitutively, but house dust mite allergens induced the secretion of high-molecular-weight HRF species (HMW-HRFs). Various cytokines including epithelial derived cytokines as well as Th2 cytokines and proinflammatory cytokines further enhanced HDM-induced secretion of HMW-HRFs.
Cultured cells were scraped and treated with adenosine and ATP, which should be abundantly present in inflammatory or injured tissues. These conditions induced secretion of HRF monomer, dimer and HMW-HRFs like stimulation with HDM plus cytokines.
Culture supernatants were analyzed by SDS-PAGE under nonreducing (−DTT) and reducing (+DTT) conditions, followed by western blotting for HRF probing. HDM-induced HRF secretion was enhanced not only by Th2 cytokines (IL-4, IL-5, and IL-13), but also by epithelial derived cytokines (IL-25, IL-33, and TSLP) and proinflammatory cytokines (IL-1beta, IL-6 and TNF). med, medium alone; US, unstimulated; HDM, house dust mite; CR, cockroach; RW, ragweed; Af, Aspergillus fumigatus. Arrowhead, HRF monomer.

A further assay concerns IgE+ mMCP-1+ mast cells. The assay is described as follows: Localization of gavaged HRF inhibitors in jejunum by confocal microscopy. In kind it is in vivo, mouse. The settings on record: mice with allergic diarrhea, 1 h after i.g. gavage of 0.1 mg, anti-GST staining. How it is done:
HRF multimers in the jejunum of non-sensitized/OVA challenged (Cont, n=6) or OVA-sensitized/OVA-challenged (OVA, n=5) mice were quantified by a newly developed ELISA (FIG. 3A, FIG. 3C). HRF was also measured by ELISA (FIG. 3B). HRF dimer and monomer were quantified by western blotting in control (Cont) and food allergic mice treated without (OVA) or with GST (GST) or GST-N19 (N19) (n=5 for each group) (FIG. 3D). Allergic diarrhea was induced by 6 challenges. On the day of 7th challenge, the mice were gavaged with 0.1 mg of GST or GST-N19 (FIG. 3E). One hour later, mice were sacrificed without OVA challenge. Jejunum tissues were stained for GST, IgE, and mMCP-1 before confocal microscopy (n=5 for GST and n=6 for GST-N19). Arrows indicate cells positive for GST or GST-N19 as well as IgE and mMCP-1. […] Bars=50 μm.
Jejunum biopsy was fixed in 4% paraformaldehyde at 4° C., washed in 10-20% sucrose in phosphate buffered saline, and embedded in O.C.T. compound (Sakura Finetek, Japan). Cyrosections were made in 6 μm and blocked with 2% skim milk. Immunostaining was performed with anti-HRF (rabbit polyclonal FL-172), anti-GST (rabbit polyclonal Z-5) (Santa Cruz Biotechnology), anti-IgE (clone RME-1 from Biolegend and clone R35-72 from BD Biosciences), anti-mMCP1 (Catalog #AF5146, R&D Systems), anti-CD45 (clone 30-F11), anti-CD63 (clone NVG-2) (Biolegend), and anti-Siglec F (clone E50-2440, BD Biosciences) as primary antibodies, and anti-Rabbit Alexa Fluor 647 (Catalog #A21245), anti-Rat Alexa Fluor 568 (Catalog #A11077), and anti-Sheep Alexa Fluor 555 (Catalog #A11015) (Thermo Fisher Scientific) as secondary antibodies. Coverslips were mounted with Prolong Gold with DAPI (Thermo Fisher Scientific) and fluorescence was observed under Leica TCS SP2 confocal microscopy (Leica) and Nuance Multi spectral Imaging System (PerkinElmer).
Applicant next tested whether HRF inhibitors target mucosal mast cells. To this end, mice with allergic diarrhea were i.g. gavaged with GST-N19 or GST, and their location was identified 1 h after their gavage.

The subject of assay [2] is c-Kit+ mucosal mast cells of the small intestine. The assay is described as follows: Ex vivo mast cell activation test (MCAT). The settings on record: cells from allergic mice, HRF-2CA 300 μg/ml. In kind it is cell-based, mouse. How it is done: FIGS. 2A-2C show mucosal mast cells can be activated ex vivo by antigen. Cells were released with EDTA from small intestines of non-sensitized/OVA challenged (Cont) or OVA-sensitized/OVA-challenged (OVA) mice, and mononuclear cells were selected. The cells were incubated for 15 min at 37° C. with OVA or anti-IgE antibody, and activation of Kit^+ mast cells was measured by flow cytometry (FIG. 2A, FIG. 2B). **, ***: p<0.01, p<0.001 by Student's t-test. (n=2; a representative of 2 independent experiments) (FIG. 2C) Mucosal cells derived from OVA-sensitized/OVA-challenged mice were stimulated with PBS (n=4), OVA (10 ng/ml, n=4) or HRF dimer (100 μg/ml, n=2) in the presence or absence of HRF-2CA (300 μg/ml).
FIGS. 11A-11C show HRF dimer, but not monomer can activate mast cells. (FIG. 11A) Purified dimeric and monomeric HRF expressed in E. coli. Recombinant HRF-[…] was purified first by Histrap HP and then Sephacryl S-200 HR16/60. Two peaks were observed by Sephacryl size fractionation. The first (Fr1) and second (Fr3) peaks contained dimer and monomer, respectively, as shown by SDS-PAGE. Fr1 and Fr3 were used for mast cell stimulation. (FIG. 11B) Cells were released with 10 mM EDTA from small intestines of OVA-sensitized/OVA-challenged mice, and mononuclear cells were selected. The cells were incubated for 15 min at 37° C. with mHRF monomer or dimer (100 μg/ml), or PBS, and Kit^+ mast cell activation (LAMP-1^+) was measured by flow cytometry (n=3). (FIG. 11C) Control experiments indicate an excellent specificity of the assay for HRF multimers. HRF-2CA (2CA) was used as a monomer control (n=2 for each concentration). Note that total concentrations of the 1:9 mixture of dimer:monomer gave almost the same luminescence values as did ten-fold less concentrations of dimer.
Twenty-four hours after the last OVA challenge, mice were sacrificed and small intestines (0.5-15 cm from stomach) were collected. The intestinal tissues were opened longitudinally and washed with PBS. Then, the tissues were incubated with 10 mM EDTA-PBS for 30 min at 37° C. After incubation, the tissues were transferred to 30 ml PBS in 50 ml tubes and vigorously shaken. After washed, the cells were resuspended in 40% Percoll solution and slowly loaded on the top of 75% Percoll solution. The cells were then centrifuged (2000 rpm, 20 min) and lymphocytes were collected. The cells were once centrifuged and resuspended in Tyrode's buffer. Abs (Biotin-anti-CD4 mAb (clone RM4-5), Biotin-anti-CD8 mAb (clone 53-6.7), Biotin-anti-B220 mAb (clone RA3-6B2), Biotin-anti-CD326 mAb (clone G8.8), PE-anti-CD117 (clone 2B8), AlexaFluor647-anti-LAMP-1 mAb (clone 1D4B)) (Biolegend) were added and cells were then stimulated with OVA, anti-IgE (clone RME-1, BioLegend) and recombinant dimeric murine HRF for 15 min at 37° C. After activation, cells were washed and incubated with FITC-streptavidin (Catalog #405202, Biolegend) for 30 min at 4° C. LAMP-1 expression was detected using FACS Calibur. Data were analyzed using FlowJo software.

The subject of assay [3] is OVA-induced food allergy (allergic diarrhea). Description: IgE-mediated experimental food allergy, i.g. pretreatment with HRF inhibitor before each OVA challenge. Type of assay: in vivo, mouse. The settings on record: i.g. pretreatment; serum ELISA. How it is done:
FIGS. 1A-1I show GST-N19 inhibits the development of diarrhea and intestinal mastocytosis in murine food allergy. Mice were i.p. sensitized with OVA ([…]) plus alum on days 0 and 14. From day 28, mice were i.g. challenged with OVA (50 mg) three times a week. Sensitized mice were either non-pretreated (−) or i.g. pretreated with 100 μg of GST or GST-N19 (N19). (FIG. 1A) Procedure scheme. (FIG. 1B) The development of diarrhea was monitored for 90 min after each OVA challenge. (n=5 for non-sensitized group, n=3 for inhibitor non-pretreated group, n=4 for GST group, n=6 for N19 group, data are representative of at least 3 independent experiments) Log-rank test: p=0.028 (GST vs. GST-N19), p=0.036 (control vs. GST-N19). […] (FIG. 1C-FIG. 1E) Total IgE, IgG1, HRF, and HRF-reactive IgE and IgG in sera were measured by ELISA. (FIG. 1F) Serum mMCP-1 was also measured by ELISA. (FIG. 1G) Sections of jejunum were stained with chloroacetate esterase to identify mast cells. Sections indicated by rectangles are enlarged in lower rows. Bar=100 μm in large pictures and 50 μm in insets. (FIG. 1H) Flow cytometry was performed to enumerate MMC9s (Lin^−c-Kit^+ST2^+IL-17RB^−Integrin β7^lo) in jejunum. (n=14 for non-sensitized group, n=15 for inhibitor non-pretreated group, n=9 for GST group, n=9 for GST-N19 group, pooled data of 3 independent experiments) (FIG. 1I) Cytokine mRNAs in jejunum were quantified by qRT-PCR. *, **: p<0.05, p<0.01 by ANOVA with Tukey's multiple comparison.
Mice were i.p. sensitized with OVA (50 μg/mouse) plus alum on days 0 and 14. From day 28, mice were i.g. challenged with OVA (25 or 50 mg) or PBS (control) three times a week. Before each challenge, mice were starved for 3 h, then i.g. pretreated with GST, GST-N19 (100 μg/mouse), synthetic N19 peptide, or HRF-2CA. The development of diarrhea was monitored for 90 min after OVA challenge. Diarrhea severity (30) was based on states of stool: solid (score 0), funicular (score 1), slurry (score 2), and watery (score 3).
For histologic analysis, jejunal tissue was fixed in 10% formalin. Mast cells in jejunal sections were detected by chloroacetate esterase staining. IgE, IgG, IgG1, IgG2a, mMCP-1, HRF, HRF-reactive IgE, and HRF-reactive IgG 24 h after the last OVA challenge were measured by ELISA (see Supplemental Information). Cytokine mRNAs in jejunum were quantified by qRT-PCR.
Twenty-four hours after the last OVA challenge, mice were sacrificed and small intestines (0.5-15 cm from stomach) were collected. The intestinal tissues were opened longitudinally and washed with HBSS. The washed tissues were incubated with 5 mM EDTA-HBSS for 30 min at 4° C., transferred to 30 ml HBSS in 50 ml tubes, and vigorously shaken to remove intestinal epithelial cells. The tissues were then washed with 10 ml of 10% FCS RPMI medium. Tissues were cut into tiny pieces and incubated with 2.4 mg/ml Collagenase D and 0.2 mg/ml DNase for 30 min at 37° C. Then cells were washed, resuspended in 44% Percoll solution, and slowly loaded on the top of 67% Percoll solution. The cells were centrifuged (1800 rpm, 20 min) and lymphocyte fractions were collected and used for detection of MMC9s (Lin^−c-Kit^+ST2^+IL-17RB^−Integrin β7^lo).
The cells were first incubated with 2.4G2 for 15 min at 4° C. and further incubated with Abs (PE-anti-07 integrin mAb (clone FIB504), PerCP/Cy5.5-anti-CD4 mAb (clone RM4-5), PerCP/Cy5.5-anti-CD8 mAb (clone 53-6.7), PerCP/Cy5.5-anti-CD11b mAb (clone M1/70), PerCP/Cy5.5-anti-CD11c mAb (clone N418), PerCP/Cy5.5-anti-B220 mAb (RA3-6B2), PerCP/Cy5.5-anti-Ly-6G/Ly-6C mAb (clone RB6-8C5), PerCP/Cy5.5-anti-CD335 mAb (clone 29A1.4), AlexaFluor647-anti-IL-17RB (clone 9B10), APC/Cy7-anti-CD117 (clone 2B8), Biotin-anti-ST2 (clone DIH9)) (Biolegend) for 30 min at 4° C. After washed, the cells were incubated with SA-BV421 (Biolegend) for 30 min at 4° C. MMC9 population was identified using FACS Canto. Data were analyzed using FlowJo software.

Take `Nc1ncnc2c1ncn2[C@@H]1O[C@H](COP(=O)(O)OP(=O)(O)OP(=O)(O)O)[C@@H](O)[C@H]1O` [ATP]: in assay [1], the “secretion of HRF monomer, dimer and HMW-HRFs” value was “induced”.
For `Nc1ncnc2c1ncn2[C@@H]1O[C@H](CO)[C@@H](O)[C@H]1O` [adenosine], in assay [1], the “secretion of HRF monomer, dimer and HMW-HRFs” value is listed as “induced”.
On to “GST: GST protein used as control for GST-N19 [reference compound]”, for which the “IgE+ mMCP-1+ mast cells co-localized with the substance” value in the assay on IgE+ mMCP-1+ mast cells is recorded as 34%.
On to “synthetic N19 peptide: synthesized N19 peptide (N-terminal 19 amino acids of HRF); HRF inhibitor (MIIYRDLISHDEMFSDIYK)”, for which the “HRF-induced activation of mucosal mast cells” value in assay [2] (HRF dimer 100 μg/ml) was “significantly suppressed”. In addition, the “OVA-induced activation of mucosal mast cells” value in assay [2] (OVA 10 ng/ml) is “significantly suppressed”. Further, in assay [3], the “levels of total IgE, IgG1, IgG2a or HRF-reactive IgE and IgG” value is given as “failed to affect”.
